Columns and labels:
Type in all cases: cell-based
[1] = target: T1, RPS6KA1 (Homo sapiens, UniProt Q15418); assay: Expression proteomics in THP-1 cells, RPS6KA1 level; conditions: RPS6KA1 protein log2 fold change, 24 h, 1.0 μM
T1 construct: endogenous in cells; host or cells: THP-1
Experimental: (§1) THP-1 cells were seeded at a concentration of 3×10^6 cells in T175 flasks with 60 mL growth medium (RPM11640+10% FBS). […] of a 10× compound solution prepared in growth medium (DMSO), IAP PROTAC) was added and the cells were treated for the indicated time points (6 or 24 h) at 37° C., 5% CO2. For harvesting the cells were collected into falcon tubes on ice, centrifuged and washed twice in cold PBS (Life technologies). After the last washing step the supernatant was removed and the pellets were snap-frozen in liquid N2 and stored at −80° C. and lysed in 2% SDS for 3 min at 95° C. in a thermomixer (Thermo Fisher Scientific), followed by digestion of DNA with Benzonase at 37° C. for 1.5 h. Lysate was cleared by centrifugation an protein concentration in supernatant was determined by BCA assay.
(§2) Leukemia 25, 89-100 (2011).
(§3) Samples were dried in vacuo and resuspended in 0.05% trifluoroacetic acid in water. […]
(§4) Reporter ion intensities were read from raw data and multiplied with ion accumulation times (the unit is milliseconds) so as to yield a measure proportional to the number of ions;
(§5) Nat Biotech 29, 255-265 (2011). this measure is referred to as ion area Savitski, M. M. et al. Delayed Fragmentation and Optimized Isolation Width Settings for Improvement of Protein Identification and Accuracy of Isobaric Mass Tag Quantification on Orbitrap-Type Mass Spectrometers. […]

[2] = target: T2, PTK2B (Homo sapiens, UniProt Q14289); assay: Expression proteomics in THP-1 cells, PTK2B level; conditions: PTK2B protein log2 fold change, 24 h, 1.0 μM
T2 construct: endogenous in cells; host or cells: THP-1
T2 sequence (Q14289 whole entry): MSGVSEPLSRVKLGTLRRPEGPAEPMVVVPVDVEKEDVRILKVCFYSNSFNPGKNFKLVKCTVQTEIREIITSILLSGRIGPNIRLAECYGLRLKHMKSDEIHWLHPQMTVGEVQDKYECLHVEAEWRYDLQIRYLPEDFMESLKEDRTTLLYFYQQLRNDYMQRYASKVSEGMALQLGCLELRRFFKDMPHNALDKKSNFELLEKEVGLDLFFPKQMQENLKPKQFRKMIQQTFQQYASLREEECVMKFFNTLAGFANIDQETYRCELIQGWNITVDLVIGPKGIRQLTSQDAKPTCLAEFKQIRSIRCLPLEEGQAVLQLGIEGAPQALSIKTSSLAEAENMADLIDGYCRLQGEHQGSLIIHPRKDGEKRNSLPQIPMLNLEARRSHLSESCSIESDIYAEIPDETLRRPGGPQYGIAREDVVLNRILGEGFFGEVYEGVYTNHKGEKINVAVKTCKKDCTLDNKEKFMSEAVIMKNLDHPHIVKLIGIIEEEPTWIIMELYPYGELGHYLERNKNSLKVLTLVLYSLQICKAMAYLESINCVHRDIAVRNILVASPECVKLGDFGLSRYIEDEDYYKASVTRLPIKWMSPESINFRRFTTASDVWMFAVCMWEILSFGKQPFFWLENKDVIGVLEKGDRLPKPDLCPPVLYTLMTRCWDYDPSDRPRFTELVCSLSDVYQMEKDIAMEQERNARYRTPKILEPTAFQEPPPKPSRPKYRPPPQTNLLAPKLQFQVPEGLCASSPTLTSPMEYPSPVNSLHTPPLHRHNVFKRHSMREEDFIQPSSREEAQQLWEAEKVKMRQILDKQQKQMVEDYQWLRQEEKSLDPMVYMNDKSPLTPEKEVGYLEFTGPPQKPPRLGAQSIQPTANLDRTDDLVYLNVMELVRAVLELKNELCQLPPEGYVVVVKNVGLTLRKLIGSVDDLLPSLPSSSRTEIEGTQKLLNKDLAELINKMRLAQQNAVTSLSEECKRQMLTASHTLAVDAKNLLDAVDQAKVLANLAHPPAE
Experimental: as §1, §2, §3, §4, §5

[3] = target: T3, MAPK9 (Homo sapiens, UniProt P45984); assay: Expression proteomics in THP-1 cells, MAPK9 level; conditions: MAPK9 protein log2 fold change, 24 h, 1.0 μM
T3 construct: endogenous in cells; host or cells: THP-1
T3 sequence (P45984 whole entry): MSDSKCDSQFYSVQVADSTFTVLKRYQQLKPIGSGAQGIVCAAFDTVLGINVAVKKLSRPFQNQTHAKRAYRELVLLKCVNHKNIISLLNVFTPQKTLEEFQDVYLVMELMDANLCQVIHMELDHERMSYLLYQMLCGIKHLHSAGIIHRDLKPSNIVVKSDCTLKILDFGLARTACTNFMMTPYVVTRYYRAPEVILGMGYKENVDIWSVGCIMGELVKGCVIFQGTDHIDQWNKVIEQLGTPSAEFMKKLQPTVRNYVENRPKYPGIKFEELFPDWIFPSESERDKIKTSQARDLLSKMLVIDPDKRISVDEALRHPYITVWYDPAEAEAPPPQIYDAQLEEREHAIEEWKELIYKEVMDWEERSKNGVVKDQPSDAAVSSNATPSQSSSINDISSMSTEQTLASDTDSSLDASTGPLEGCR
Experimental: as §1, §2, §3, §4, §5

[4] = target: T4, PTK2 (Homo sapiens, UniProt Q05397); assay: Expression proteomics in THP-1 cells, PTK2 level; conditions: PTK2 protein log2 fold change, 24 h, 1.0 μM
T4 construct: endogenous in cells; host or cells: THP-1
T4 sequence (Q05397 whole entry): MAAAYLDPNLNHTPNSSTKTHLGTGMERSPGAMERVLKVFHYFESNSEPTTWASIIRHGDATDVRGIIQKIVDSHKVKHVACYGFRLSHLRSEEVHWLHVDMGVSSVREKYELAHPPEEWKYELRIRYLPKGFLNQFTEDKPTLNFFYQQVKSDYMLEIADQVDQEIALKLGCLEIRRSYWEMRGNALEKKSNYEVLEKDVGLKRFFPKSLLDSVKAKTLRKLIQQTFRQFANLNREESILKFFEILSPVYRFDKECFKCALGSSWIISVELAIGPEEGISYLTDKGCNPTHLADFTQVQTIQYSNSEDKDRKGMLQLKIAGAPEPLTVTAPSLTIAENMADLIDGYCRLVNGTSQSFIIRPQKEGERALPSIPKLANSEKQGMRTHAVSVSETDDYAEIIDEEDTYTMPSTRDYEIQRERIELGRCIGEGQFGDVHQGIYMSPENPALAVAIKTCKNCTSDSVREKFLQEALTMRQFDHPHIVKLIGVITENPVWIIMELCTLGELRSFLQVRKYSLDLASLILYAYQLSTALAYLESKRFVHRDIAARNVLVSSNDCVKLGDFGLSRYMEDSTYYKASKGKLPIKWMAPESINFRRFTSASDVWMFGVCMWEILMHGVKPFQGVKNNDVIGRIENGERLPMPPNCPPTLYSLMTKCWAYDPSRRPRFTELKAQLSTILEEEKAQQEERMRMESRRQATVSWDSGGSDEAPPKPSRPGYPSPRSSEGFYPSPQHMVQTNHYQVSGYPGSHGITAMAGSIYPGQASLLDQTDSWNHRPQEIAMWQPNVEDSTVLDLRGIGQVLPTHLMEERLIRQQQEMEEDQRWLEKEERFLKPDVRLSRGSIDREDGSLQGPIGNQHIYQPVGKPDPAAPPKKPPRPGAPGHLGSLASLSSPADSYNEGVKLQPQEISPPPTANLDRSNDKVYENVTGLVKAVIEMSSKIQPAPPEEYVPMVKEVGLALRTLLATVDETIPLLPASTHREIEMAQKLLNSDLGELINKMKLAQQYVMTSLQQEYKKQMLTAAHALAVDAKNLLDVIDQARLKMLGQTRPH
Experimental: as §1, §2, §3, §4, §5

T1 sequence (Q15418 whole entry): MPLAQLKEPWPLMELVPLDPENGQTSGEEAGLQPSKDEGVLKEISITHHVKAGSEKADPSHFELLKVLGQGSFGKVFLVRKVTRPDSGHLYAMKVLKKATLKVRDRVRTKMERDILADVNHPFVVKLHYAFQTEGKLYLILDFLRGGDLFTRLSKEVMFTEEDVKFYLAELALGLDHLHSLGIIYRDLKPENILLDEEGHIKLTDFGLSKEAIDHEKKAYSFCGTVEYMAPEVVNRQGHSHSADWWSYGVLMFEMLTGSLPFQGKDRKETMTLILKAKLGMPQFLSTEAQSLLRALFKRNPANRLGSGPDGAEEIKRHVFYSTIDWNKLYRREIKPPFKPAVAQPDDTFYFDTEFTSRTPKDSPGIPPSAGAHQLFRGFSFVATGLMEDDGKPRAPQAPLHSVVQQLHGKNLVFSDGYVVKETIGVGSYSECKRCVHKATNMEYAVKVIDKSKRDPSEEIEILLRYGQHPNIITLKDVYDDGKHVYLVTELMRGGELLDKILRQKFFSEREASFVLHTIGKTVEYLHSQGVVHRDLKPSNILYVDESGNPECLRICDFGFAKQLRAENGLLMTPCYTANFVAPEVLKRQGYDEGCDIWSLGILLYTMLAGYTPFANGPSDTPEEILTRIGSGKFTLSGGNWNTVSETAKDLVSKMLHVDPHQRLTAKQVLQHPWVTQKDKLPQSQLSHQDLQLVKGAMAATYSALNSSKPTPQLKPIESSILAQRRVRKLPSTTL

log2fc_IAP_24 h_1.0 μM_n1 ([1]; replicate n1): −1.21
log2fc_IAP_24 h_1.0 μM_n2 ([1]; replicate n2): −1.24
log2fc_IAP_24 h_1.0 μM_n1 ([2]; replicate n1): −1.78
log2fc_IAP_24 h_1.0 μM_n2 ([2]; replicate n2): −2.06
log2fc_IAP_24 h_1.0 μM_n1 ([3]; replicate n1): −1.22
log2fc_IAP_24 h_1.0 μM_n2 ([3]; replicate n2): −1.31
log2fc_IAP_24 h_1.0 μM_n1 ([4]; replicate n1): −0.90
log2fc_IAP_24 h_1.0 μM_n2 ([4]; replicate n2): −1.00
SMILES: CNC(=O)c1ccccc1Nc1nc(Nc2ccc(N3CCN(CCOCCOCCOCCOc4ccc5c(c4)CN(C(=O)[C@@H](NC(=O)[C@H](C)NC)C(C)(C)C)[C@H](C(=O)N[C@@H]4CCCc6ccccc64)C5)CC3)cc2)ncc1Cl [IAP, (S)-7-(2-(2-(2-(2-(4-(4-((5-Chloro-4-((2-(methylcarbamoyl)phenyl)amino)pyrimidin-2-yl)amino)phenyl)piperazin-1-yl)ethoxy)ethoxy)ethoxy)ethoxy)-2-((S)-3,3-dimethyl-2-((S)-2-(methylamino)propanamido)butanoyl)-N-((R)-1,2,3,4-tetrahydronaphthalen-1-yl)-1,2,3,4-tetrahydroisoquinoline-3-carboxamide]

From patent US20190152946A1, “Novel Compounds” (GlaxoSmithKline Intellectual Property Development Limited, priority 2016, published 2019)
